Source: patent US11337950B2, “Biologically active cannabidiol analogs” (University of Mississippi, priority 2016, dated 2022)
Several values for one entry are separate records, joined by “and”; a condition that tells them apart may be missing. Equal entries are not always repeated.

Key:
[1] = Plasma and organ concentrations of CBD and CBD-Mono-VHS after IP administration (Example 22); type: in vivo; conditions: mice, 70 Minutes; for CBD-Mono-Val-Mono-HS Plasma Concentration, AVG. / Total CBD-Mono-Val-Mono-HS, Brain, AVG. / Total CBD-Mono-Val-Mono-HS, Kidney, AVG. / Total CBD-Mono-Val-Mono-HS, Liver, AVG. / Total CBD-Mono-Val-Mono-HS, Spleen, AVG. / Total CBD-Mono-Val-Mono-HS, Total, AVG. / CBD-Mono-Val-Mono-HS Plasma Concentration / Total CBD-Mono-Val-Mono-HS, Brain / Total CBD-Mono-Val-Mono-HS, Kidney / Total CBD-Mono-Val-Mono-HS, Liver / Total CBD-Mono-Val-Mono-HS, Spleen / Total CBD-Mono-Val-Mono-HS, Total: IP; for CBD-Mono-Val-Mono-HS Plasma Concentration / Total CBD-Mono-Val-Mono-HS, Brain / Total CBD-Mono-Val-Mono-HS, Kidney / Total CBD-Mono-Val-Mono-HS, Liver / Total CBD-Mono-Val-Mono-HS, Spleen / Total CBD-Mono-Val-Mono-HS, Total: listed as CBD-Mono-Val-Mono-HS
Description: CBD-Mono-VHS was administered intraperitoneally to mice at 2 doses (30 μg and 60 μg equivalent of CBD/mouse). Seventy minutes after dosing the animals (3 mice in each dose group), all animals were sacrificed. Blood, as well as organs (liver, spleen, kidney, and brain), were harvested for LC-MS/MS analysis of their content of both CBD and CBD-Mono-VHS.
Also shown is the concentration of CBD-Mono-VHS in the plasma 70 minutes after dosing.

[2] = tested on: cisplatin-induced tactile allodynia; assay: Cisplatin-induced tactile allodynia model, electronic von Frey (Examples 23, 24); type: in vivo, C57BL/6 mice; conditions: Example 24, mice; for Doses with mean withdrawal thresholds significantly higher compared to vehicle: ps≤0.0001
[3] = IP CBD-Mono-VHS, High Dose (60 μg CBD/mouse), individual animals
[4] = IP CBD-Mono-VHS, Low Dose (30 μg CBD/mouse), AVG.
[5] = IP CBD-Mono-VHS, Low Dose (30 μg CBD/mouse), individual animals
[6] = High Dose (60 μg CBD/mouse), AVG.
[7] = High Dose (60 μg CBD/mouse), individual animals
[8] = Low Dose (30 μg CBD/mouse), AVG.
[9] = Low Dose (30 μg CBD/mouse), individual animals

Compound: C=C(C)C1CCC(C)=CC1c1c(O)cc(CCCCC)cc1OC(=O)[C@@H](NC(=O)CCC(=O)O)C(C)C (stereo partly shown) [CBD-Mono-VHS, CBD-Mono-Valinate-Mono-Hemisuccinate]
- Total CBD, Liver [1, 3]: 319.91 ng and 195.66 ng and 369.75 ng
- Total CBD, Spleen [1, 3]: 93.63 ng and 99.63 ng and 0.00 ng
- Total CBD, Total ([1]; IP CBD-Mono-VHS, High Dose (60 μg CBD/mouse), individual animals, sum of the columns): 432.04 ng and 310.25 ng and 372.61 ng
- CBD Plasma Concentration, AVG. [1, 4]: 0.00 ng/mL
- Total CBD, Brain, AVG. [1, 4]: 0.00 ng
- Total CBD, Kidney, AVG. [1, 4]: 2.343 ng
- Total CBD, Liver, AVG. [1, 4]: 47.62 ng
- Total CBD, Spleen, AVG. [1, 4]: 9.46 ng
- Total CBD, Total, AVG. ([1]; IP CBD-Mono-VHS, Low Dose (30 μg CBD/mouse), AVG., sum of the columns): 59.42 ng
- CBD Plasma Concentration [1, 5]: 0.00 ng/mL
- Total CBD, Brain [1, 5]: 0.00 ng
- Total CBD, Kidney [1, 5]: 7.03 ng and 0.00 ng (2×)
- Total CBD, Liver [1, 5]: 41.82 ng and 19.61 ng and 81.42 ng
- Total CBD, Spleen [1, 5]: 10.04 ng and 18.35 ng and 0.00 ng
- Total CBD, Total ([1]; IP CBD-Mono-VHS, Low Dose (30 μg CBD/mouse), individual animals, sum of the columns): 58.89 ng and 37.96 ng and 81.42 ng
- CBD-Mono-Val-Mono-HS Plasma Concentration, AVG. [1, 6]: 210.45 ng/mL
- Total CBD-Mono-Val-Mono-HS, Brain, AVG. [1, 6]: 63.51 ng
- Total CBD-Mono-Val-Mono-HS, Kidney, AVG. [1, 6]: 1193.95 ng
- Total CBD-Mono-Val-Mono-HS, Liver, AVG. [1, 6]: 7558.89 ng
- Total CBD-Mono-Val-Mono-HS, Spleen, AVG. [1, 6]: 771.76 ng
- Total CBD-Mono-Val-Mono-HS, Total, AVG. ([1]; High Dose (60 μg CBD/mouse), AVG., sum of the columns): 9798.56 ng
- CBD-Mono-Val-Mono-HS Plasma Concentration [1, 7]: 137.82 ng/mL and 100.53 ng/mL and 393.00 ng/mL
- Total CBD-Mono-Val-Mono-HS, Brain [1, 7]: 46.59 ng and 42.45 ng and 101.50 ng
- Total CBD-Mono-Val-Mono-HS, Kidney [1, 7]: 780.57 ng and 248.34 ng and 2552.93 ng
- Total CBD-Mono-Val-Mono-HS, Liver [1, 7]: 8380.90 ng and 2882.40 ng and 11413.38 ng
- Total CBD-Mono-Val-Mono-HS, Spleen [1, 7]: 711.31 ng and 477.40 ng and 1126.58 ng
- Total CBD-Mono-Val-Mono-HS, Total ([1]; High Dose (60 μg CBD/mouse), individual animals, sum of the columns): 10057.18 ng and 3751.113 ng and 15587.4 ng
- CBD-Mono-Val-Mono-HS Plasma Concentration, AVG. [1, 8]: 29.10 ng/mL
- Total CBD-Mono-Val-Mono-HS, Brain, AVG. [1, 8]: 9.18 ng
- Total CBD-Mono-Val-Mono-HS, Kidney, AVG. [1, 8]: 101.58 ng
- Total CBD-Mono-Val-Mono-HS, Liver, AVG. [1, 8]: 1170.01 ng
- Total CBD-Mono-Val-Mono-HS, Spleen, AVG. [1, 8]: 179.54 ng
- Total CBD-Mono-Val-Mono-HS, Total, AVG. ([1]; Low Dose (30 μg CBD/mouse), AVG., sum of the columns): 1489.42 ng
- CBD-Mono-Val-Mono-HS Plasma Concentration [1, 9]: 32.08 ng/mL and 32.24 ng/mL and 22.97 ng/mL
- Total CBD-Mono-Val-Mono-HS, Brain [1, 9]: 13.48 ng and 8.26 ng and 5.81 ng
- Total CBD-Mono-Val-Mono-HS, Kidney [1, 9]: 88.05 ng and 84.14 ng and 132.55 ng
- Total CBD-Mono-Val-Mono-HS, Liver [1, 9]: 1431.98 ng and 534.11 ng and 1543.96 ng
- Total CBD-Mono-Val-Mono-HS, Spleen [1, 9]: 105.24 ng and 283.02 ng and 150.36 ng
- Total CBD-Mono-Val-Mono-HS, Total ([1]; Low Dose (30 μg CBD/mouse), individual animals, sum of the columns): 1670.831 ng and 941.765 ng and 1855.656 ng
- Effect on cisplatin-induced tactile allodynia (eVF paw withdrawal), in words ([2]; 1.0 to 4.0 mg/kg (CBD equivalent) IP alone): dose-dependent attenuation of tactile allodynia that equal 2.5 mg/kg morphine at 3.0 and 4.0 mg/kg
- Effect on cisplatin-induced tactile allodynia (eVF paw withdrawal), in words ([2]; 1.0 to 4.0 mg/kg (CBD equivalent) in combination with 0.1 mg/kg morphine, IP): shifted this dose response curve to the left where 2.0 mg/kg CBD-Mono-VHS attenuated tactile allodynia equal to that of 2.5 mg/kg morphine
- Doses with mean withdrawal thresholds significantly higher compared to vehicle ([2]; IP alone): 2.0 to 4.0 mg/kg
- Doses with mean withdrawal thresholds significantly higher compared to vehicle ([2]; IP, combination with 0.1 mg/kg morphine): 1.0 to 4.0 mg/kg
